Molecular target: ROCK2 (Homo sapiens (Human), UniProt O75116)
Assay: ROCK2 assay (peptide phosphorylation, LABCHIP 3000 Reader)
Format: biochemical
Settings: 5 μM ATP, 1.5 μM peptide substrate, dose-response
Procedure: After incubation, the reaction was terminated by the addition of EDTA and the phosphorylated and non-phosphorylated peptides separated using a LABCHIP®3000 Reader (Caliper Life Sciences). […] Compounds were tested in dose-response format, and the inhibition of kinase activity was calculated at each concentration of compound. […] Representative Examples were tested in the ROCK2 assay described above and found having ROCK2 inhibitory activity.

Sequence of ROCK2 (O75116 whole entry, species assumed): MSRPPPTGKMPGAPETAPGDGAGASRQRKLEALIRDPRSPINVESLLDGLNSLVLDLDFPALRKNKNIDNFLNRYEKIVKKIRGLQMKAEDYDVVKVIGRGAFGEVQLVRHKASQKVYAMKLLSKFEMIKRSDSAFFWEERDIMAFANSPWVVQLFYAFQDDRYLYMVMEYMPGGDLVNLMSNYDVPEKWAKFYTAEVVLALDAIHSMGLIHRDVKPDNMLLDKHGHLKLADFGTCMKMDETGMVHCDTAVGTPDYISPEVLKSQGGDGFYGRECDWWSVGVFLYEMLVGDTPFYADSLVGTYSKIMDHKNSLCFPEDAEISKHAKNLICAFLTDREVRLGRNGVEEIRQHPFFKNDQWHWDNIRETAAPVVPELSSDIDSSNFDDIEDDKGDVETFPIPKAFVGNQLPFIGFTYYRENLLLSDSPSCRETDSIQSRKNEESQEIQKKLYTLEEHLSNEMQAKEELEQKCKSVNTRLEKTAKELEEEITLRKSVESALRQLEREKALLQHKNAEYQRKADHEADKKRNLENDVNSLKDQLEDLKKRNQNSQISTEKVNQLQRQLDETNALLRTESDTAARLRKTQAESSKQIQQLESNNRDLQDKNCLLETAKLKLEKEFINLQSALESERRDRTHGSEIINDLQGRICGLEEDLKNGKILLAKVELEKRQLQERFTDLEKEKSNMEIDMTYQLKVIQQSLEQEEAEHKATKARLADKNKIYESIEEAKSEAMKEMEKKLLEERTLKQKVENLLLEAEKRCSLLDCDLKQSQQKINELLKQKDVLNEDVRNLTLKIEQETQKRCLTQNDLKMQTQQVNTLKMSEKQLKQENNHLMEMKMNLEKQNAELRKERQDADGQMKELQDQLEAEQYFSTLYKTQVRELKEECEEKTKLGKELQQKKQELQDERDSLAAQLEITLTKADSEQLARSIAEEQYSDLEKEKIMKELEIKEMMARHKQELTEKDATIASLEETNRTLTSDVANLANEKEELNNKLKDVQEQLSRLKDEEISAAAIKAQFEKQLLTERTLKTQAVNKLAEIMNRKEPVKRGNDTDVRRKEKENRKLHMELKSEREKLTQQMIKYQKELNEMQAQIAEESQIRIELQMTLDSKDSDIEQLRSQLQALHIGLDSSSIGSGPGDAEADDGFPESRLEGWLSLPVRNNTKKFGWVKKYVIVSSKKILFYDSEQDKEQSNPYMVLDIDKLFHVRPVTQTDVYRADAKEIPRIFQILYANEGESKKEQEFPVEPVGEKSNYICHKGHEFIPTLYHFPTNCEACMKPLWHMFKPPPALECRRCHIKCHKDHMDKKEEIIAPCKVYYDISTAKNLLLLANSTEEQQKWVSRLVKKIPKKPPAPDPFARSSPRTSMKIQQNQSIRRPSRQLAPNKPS

Row | SMILES | IC50
1 | COc1cccc2c(C(N)=O)c(O[C@H]3C[C@@]4(C[C@H](NC(=O)c5nn(C(F)F)c6cc(OCC(C)(C)O)ccc56)C4)C3)nn12 (stereo partly drawn) [Example 138, 1-(difluoromethyl)-6-(2-hydroxy-2-methylpropoxy)-N-[(4s)-6-({3-carbamoyl-7-methoxypyrazolo[1,5-a]pyridin-2-yl}oxy)spiro[3.3]heptan-2-yl]-1H-indazole-3-carboxamide] | 22 nM
2 | Cc1nc(O[C@H]2C[C@@]3(C[C@H](NC(=O)c4cnn(-c5ccc(C#N)cc5)c4C)C3)C2)c(C(N)=O)s1 (stereo partly drawn) [Example 43, 2-methyl-4-{[(aR)-6-[1-(4-cyanophenyl)-5-methyl-1H-pyrazole-4-amido]spiro[3.3]heptan-2-yl]oxy}-1,3-thiazole-5-carboxamide] | 119 nM
3 | CN1CCN(c2ccc3c(C(=O)N[C@H]4C[C@]5(C4)C[C@H](Oc4nn(C)cc4C(N)=O)C5)cnn3c2)CC1 (stereo partly drawn) [Example 35, 1-methyl-3-({(aR)-6-[6-(4-methylpiperazin-1-yl)pyrazolo[1,5-a]pyridine-3-amido]spiro[3.3]heptan-2-yl}oxy)-1H-pyrazole-4-carboxamide] | 202 nM
4 | CC(C)(O)COc1ccc2c(C(=O)N[C@H]3C[C@]4(C3)C[C@H](Oc3nn5cc(C(F)(F)F)ccc5c3C(N)=O)C4)nn(C(F)F)c2c1 (stereo partly drawn) [Example 130, 1-(difluoromethyl)-6-(2-hydroxy-2-methylpropoxy)-N-[(4s)-6-{[3-carbamoyl-6-(trifluoromethyl)pyrazolo[1,5-a]pyridin-2-yl]oxy}spiro[3.3]heptan-2-yl]-1H-indazole-3-carboxamide] | 611 nM
5 | CC(C)(O)COc1ccc2c(C(=O)N[C@H]3C[C@]4(C3)C[C@H](Oc3nn(-c5ccccc5)cc3C(N)=O)C4)cnn2c1C1CC1 (stereo partly drawn) [Example 15, 3-({(aR)-6-[7-cyclopropyl-6-(2-hydroxy-2-methylpropoxy)pyrazolo [1,5-a]pyridine-3-amido]spiro[3.3]heptan-2-yl}oxy)-1-phenyl-1H-pyrazole-4-carboxamide] | 12.5 nM
6 | CCn1cc(C(N)=O)c(O[C@H]2C[C@@]3(C[C@H](NC(=O)c4cnn5c(C6CC6)c(OCC(C)(C)O)ccc45)C3)C2)n1 (stereo partly drawn) [Example 19, 3-({(aR)-6-[7-cyclopropyl-6-(2-hydroxy-2-methylpropoxy)pyrazolo [1,5-a]pyridine-3-amido]spiro[3.3]heptan-2-yl}oxy)-1-ethyl-1H-pyrazole-4-carboxamide] | 10.5 nM
7 | NC(=O)c1cc2sccc2nc1O[C@H]1C[C@]2(C1)C[C@H](N1C(=O)CN(Cc3ccccc3)CC1=O)C2 (stereo partly drawn) [Example 86, 5-{[(aR)-6-(4-benzyl-2,6-dioxopiperazin-1-yl)spiro[3.3]heptan-2-yl]oxy}thieno[3,2-b]pyridine-6-carboxamide] | 85.9 nM
8 | Cc1c(C(N)=O)c(O[C@H]2C[C@@]3(C[C@H](NC(=O)c4cnn5c(C6CC6)c(OCC(C)(C)O)ccc45)C3)C2)nn1C (stereo partly drawn) [Example 37, 3-({(aR)-6-[7-cyclopropyl-6-(2-hydroxy-2-methylpropoxy)pyrazolo[1,5-a]pyridine-3-amido]spiro[3.3]heptan-2-yl}oxy)-1,5-dimethyl-1H-pyrazole-4-carboxamide] | 259 nM
9 | CC(C)(O)COc1ccc2c(C(=O)NC3CC4(C3)CC(Oc3nn(CC5CC5)cc3C(N)=O)C4)cnn2c1C1CC1 (stereo not drawn) [Example 5] | 52.6 nM
10 | CC(C)(O)COc1ccc2c(C(=O)N[C@H]3C[C@]4(C3)C[C@H](Oc3nn5ccc(-c6ccc(F)nc6)cc5c3C(N)=O)C4)nn(C(F)F)c2c1 (stereo partly drawn) [Example 136, 1-(difluoromethyl)-6-(2-hydroxy-2-methylpropoxy)-N-[(4s)-6-{[3-carbamoyl-5-(6-fluoropyridin-3-yl)pyrazolo[1,5-a]pyridin-2-yl]oxy}spiro[3.3]heptan-2-yl]-1H-indazole-3-carboxamide] | 112 nM
11 | NC(=O)c1cn(-c2ccccc2)nc1O[C@H]1C[C@@]2(C[C@H](NC(=O)c3cnn4cc(OCCC(F)(F)F)ccc34)C2)C1 (stereo partly drawn) [Example 40, 1-phenyl-3-{[(aR)-6-[6-(3,3,3-trifluoropropoxy)pyrazolo[1,5-a]pyridine-3-amido]spiro[3.3]heptan-2-yl]oxy}-1H-pyrazole-4-carboxamide] | 136 nM
12 | NC(=O)c1cc2c(nc1O[C@H]1C[C@]3(C1)C[C@H](N1C(=O)CN(Cc4ccccc4)CC1=O)C3)CCOC2 (stereo partly drawn) [Example 13] | 576 nM
13 | Cn1ncc2cc(C(N)=O)c(O[C@H]3C[C@@]4(C[C@H](NC(=O)c5nn(CC(F)F)c6cc(OCC(C)(C)O)ccc56)C4)C3)nc21 (stereo partly drawn) [Example 159, 1-(2,2-difluoroethyl)-6-(2-hydroxy-2-methylpropoxy)-N-[(4s)-6-({5-carbamoyl-1-methyl-1H-pyrazolo[3,4-b]pyridin-6-yl}oxy)spiro[3.3]heptan-2-yl]-1H-indazole-3-carboxamide] | 1.1 nM
14 | COc1ccc(-n2ncc(C(=O)N[C@H]3C[C@]4(C3)C[C@H](Oc3nn(C)cc3C(N)=O)C4)c2C)cn1 (stereo partly drawn) [Example 48, 1-(6-methoxypyridin-3-yl)-5-methyl-N-[(aR)-6-[(4-carbamoyl-1-methyl-1H-pyrazol-3-yl)oxy]spiro[3.3]heptan-2-yl]-1H-pyrazole-4-carboxamide] | 685 nM
15 | CC(C)(O)COc1ccc2c(C(=O)N[C@H]3C[C@]4(C3)C[C@H](Oc3nn(CCCN)cc3C(N)=O)C4)cnn2c1C1CC1 (stereo partly drawn) [Example 27, 1-(3-aminopropyl)-3-({(aR)-6-[7-cyclopropyl-6-(2-hydroxy-2-methylpropoxy)pyrazolo [1,5-a]pyridine-3-amido]spiro[3.3]heptan-2-yl}oxy)-1H-pyrazole-4-carboxamide] | 13.8 nM
16 | CC(C)(O)COc1ccc2c(C(=O)N[C@H]3C[C@]4(C3)C[C@H](Oc3nn(-c5ccccc5C#N)cc3C(N)=O)C4)cnn2c1C1CC1 (stereo partly drawn) [Example 31, 1-(2-cyanophenyl)-3-({(aR)-6-[7-cyclopropyl-6-(2-hydroxy-2-methylpropoxy)pyrazolo [1,5-a]pyridine-3-amido]spiro[3.3]heptan-2-yl}oxy)-1H-pyrazole-4-carboxamide] | 73.3 nM
17 | N#Cc1cc(C(=O)N[C@H]2C[C@]3(C2)C[C@H](Oc2nc4c(cc2C(N)=O)COCC4)C3)ccc1F (stereo partly drawn) [Example 87, 2-{[(aR)-6-(3-cyano-4-fluorobenzamido)spiro[3.3]heptan-2-yl]oxy}-5H,7H,8H-pyrano[4,3-b]pyridine-3-carboxamide] | 156 nM

Continued by falling IC50, values first:

Row | IC50 | SMILES
18 | 2040 nM | NC(=O)c1cn(C2CC2)nc1O[C@H]1C[C@]2(C1)C[C@H](N1C(=O)NC(Cc3ccccc3)C1=O)C2 (stereo partly drawn) [Example 104, 1-cyclopropyl-3-{[(aR)-6-(4-benzyl-2,5-dioxoimidazolidin-1-yl)spiro[3.3]heptan-2-yl]oxy}-1H-pyrazole-4-carboxamide]
19 | 1160 nM | Cc1nn(C)c2nc(OC3CC4(CC(NC(=O)c5cnn6cc(OCC(C)(C)O)ccc56)C4)C3)c(C(N)=O)cc12 (stereo not drawn) [Example 73, 6-({6-[6-(2-hydroxy-2-methylpropoxy)pyrazolo [1,5-a]pyridine-3-amido]spiro[3.3]heptan-2-yl}oxy)-1,3-dimethyl-1H-pyrazolo[3,4-b]pyridine-5-carboxamide]
20 | 805 nM | Cc1c(C(=O)N[C@H]2C[C@]3(C2)C[C@H](Oc2nn4ccccc4c2C(N)=O)C3)cnn1-c1ccc(C(F)(F)F)cn1 (stereo partly drawn) [Example 120, 5-methyl-N-[(4s)-6-({3-carbamoylpyrazolo[1,5-a]pyridin-2-yl}oxy)spiro[3.3]heptan-2-yl]-1-[5-(trifluoromethyl)pyridin-2-yl]-1H-pyrazole-4-carboxamide]
21 | 359 nM | Cc1c(C(=O)N[C@H]2C[C@]3(C2)C[C@H](Oc2nn(C)cc2C(N)=O)C3)cnn1-c1ccc(C#N)cc1 (stereo partly drawn) [Example 46, 1-(4-cyanophenyl)-5-methyl-N-[(aR)-6-[(4-carbamoyl-1-methyl-1H-pyrazol-3-yl)oxy]spiro[3.3]heptan-2-yl]-1H-pyrazole-4-carboxamide]
22 | 141 nM | Cc1c(C(=O)N[C@H]2C[C@]3(C2)C[C@H](Oc2nn(C4CC4)cc2C(N)=O)C3)cnn1-c1ccccc1 (stereo partly drawn) [Example 65, 1-cyclopropyl-3-{[(aR)-6-(5-methyl-1-phenyl-1H-pyrazole-4-amido)spiro[3.3]heptan-2-yl]oxy}-1H-pyrazole-4-carboxamide]
23 | 113 nM | NC(=O)c1c(O[C@H]2C[C@@]3(C[C@H](NC(=O)c4cnn5cc(OCC(F)F)ccc45)C3)C2)nn2cc(F)ccc12 (stereo partly drawn) [Example 127, 6-fluoro-2-{[(4s)-6-[6-(2,2-difluoroethoxy)pyrazolo[1,5-a]pyridine-3-amido]spiro[3.3]heptan-2-yl]oxy}pyrazolo[1,5-a]pyridine-3-carboxamide]
24 | 109 nM | NC(=O)c1cc2c(nc1O[C@H]1C[C@@]3(C[C@H](NC(=O)c4cccc(OC(F)(F)F)c4)C3)C1)CCOC2 (stereo partly drawn) [Example 143, 2-{[(4s)-6-[3-(trifluoromethoxy)benzamido]spiro[3.3]heptan-2-yl]oxy}-5H,7H,8H-pyrano[4,3-b]pyridine-3-carboxamide]
25 | 71.6 nM | COc1nc(O[C@H]2C[C@@]3(C[C@H](NC(=O)c4cnn5cc(OCC(O)(C(F)(F)F)C(F)(F)F)ccc45)C3)C2)c(C(N)=O)s1 (stereo partly drawn) [Example 116, 2-methoxy-4-{[(4s)-6-{6-[3,3,3-trifluoro-2-hydroxy-2-(trifluoromethyl)propoxy]pyrazolo[1,5-a]pyridine-3-amido}spiro[3.3]heptan-2-yl]oxy}-1,3-thiazole-5-carboxamide]
26 | 22 nM | NC(=O)c1cn(C(F)F)nc1O[C@H]1C[C@@]2(C[C@H](NC(=O)c3cnn4cc(OCC(F)(F)F)ccc34)C2)C1 (stereo partly drawn) [Example 53, 1-(difluoromethyl)-3-{[(aR)-6-[6-(2,2,2-trifluoroethoxy)pyrazolo[1,5-a]pyridine-3-amido]spiro[3.3]heptan-2-yl]oxy}-1H-pyrazole-4-carboxamide]
27 | 10.9 nM | Cn1ncc2cc(C(N)=O)c(O[C@H]3C[C@@]4(C[C@H](NC(=O)c5cnc6c(cnn6CC(F)F)c5)C4)C3)nc21 (stereo partly drawn) [Example 157, 1-methyl-6-{[(4s)-6-[1-(2,2-difluoroethyl)-1H-pyrazolo[3,4-b]pyridine-5-amido]spiro[3.3]heptan-2-yl]oxy}-1H-pyrazolo[3,4-b]pyridine-5-carboxamide]

— patent US11078197B2, “5-membered and bicyclic heterocyclic amides as inhibitors of rock” (BRISTOL-MYERS SQUIBB COMPANY, priority 2017, dated 2021)
